Laboratory results published in patent US7544701B2, “Sulfonyldihydrobenzimidazolone compounds as 5-hydroxytryptamine-6 ligands” (Wyeth, priority 2003, dated 2009).

Molecular target: T1, human cloned 5-HT6 receptors (Homo sapiens, UniProt P50406)
T1 construct: expressed in transfected cells; host or cells: Hela cells
Assay: 5-HT6 binding affinity ([3H]-LSD displacement, membranes of Hela cells expressing human cloned 5-HT6 receptors)
Conditions: [3H]-LSD 3.0 nM, 120 min, room temperature, Hela cell membranes
Procedure: The affinity of test compounds for the serotonin 5-HT6 receptor is evaluated in the following manner. Cultured Hela cells expressing human cloned 5-HT6 receptors are harvested and centrifuged at low speed (1,000×g) for 10.0 min to remove the culture media. The harvested cells are suspended in half volume of fresh physiological phosphate buffered saline solution and recentrifuged at the same speed. This operation is repeated. The collected cells are then homogenized in ten volumes of 50 mM Tris.HCl (pH 7.4) and 0.5 mM EDTA. The homogenate is centrifuged at 40,000×g for 30.0 min and the precipitate is collected. The obtained pellet is resuspended in 10 volumes of Tris.HCl buffer and recentrifuged at the same speed. The final pellet is suspended in a small volume of Tris.HCl buffer and the tissue protein content is determined in aliquots of 10-25 μl volumes. Bovine Serum Albumin is used as the standard in the protein determination according to the method described in Lowry et al., J. Biol. Chem., 193:265 (1951). The volume of the suspended cell membranes is adjusted to give a tissue protein concentration of 1.0 mg/ml of suspension. The prepared membrane suspension (10 times concentrated) is aliquoted in 1.0 ml volumes and stored at −70° C. until used in subsequent binding experiments.
Binding experiments are performed in a 96 well microtiter plate format, in a total volume of 200 μl. […] The test compounds are added in 20.0 μl volume.
The reaction is allowed to proceed in the dark for 120 min at room temperature, at which time, the bound ligand-receptor complex is filtered off on a 96 well unifilter with a Packard Filtermate® 196 Harvester. The bound complex caught on the filter disk is allowed to air dry and the radioactivity is measured in a Packard TopCount® equipped with six photomultiplier detectors, after the addition of 40.0 μl Microscint®-20 scintillant to each shallow well. The unifilter plate is heat-sealed and counted in a PackardTopCount® with a tritium efficiency of 31.0%.
Binding in the presence of varying concentrations of test compound is expressed as a percentage of specific binding in the absence of test compound. The results are plotted as log % bound versus log concentration of test compound. […] A linear regression line of data points is plotted, from which the IC50 value is determined and the Ki value is determined based upon the following equation: Ki=IC50/(1+L/KD) where L is the concentration of the radioactive ligand used and KD is the dissociation constant of the ligand for the receptor, both expressed in nM.

T1 sequence (P50406 whole entry): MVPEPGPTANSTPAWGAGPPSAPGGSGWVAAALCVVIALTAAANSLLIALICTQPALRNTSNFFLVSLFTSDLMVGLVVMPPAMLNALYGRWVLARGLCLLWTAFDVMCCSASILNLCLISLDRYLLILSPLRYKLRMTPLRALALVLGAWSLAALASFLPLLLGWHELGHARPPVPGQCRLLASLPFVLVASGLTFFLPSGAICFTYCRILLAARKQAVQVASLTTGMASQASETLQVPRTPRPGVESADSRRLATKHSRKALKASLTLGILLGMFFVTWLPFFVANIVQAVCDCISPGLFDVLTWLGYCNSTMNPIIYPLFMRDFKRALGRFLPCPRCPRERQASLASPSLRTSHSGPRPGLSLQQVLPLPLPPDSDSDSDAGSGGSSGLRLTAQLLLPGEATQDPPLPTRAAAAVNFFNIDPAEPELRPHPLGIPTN

Compound	Ki [nM]
1-[(2,6-dichloroimidazo[2,1-b][1,3]thiazol-5-yl)sulfonyl]-3-(1,2,3,6-tetrahydropyridin-4-yl)-1,3-dihydro-2H-benzimidazol-2-one [Example 50]	18
CN(C)CCn1c(=O)n(S(=O)(=O)c2ccc(Cl)s2)c2ccccc21 [Example 4, 1-[(5-Chlorothien-2-yl)sulfonyl]-3-[2-(dimethylamino)ethyl]-1,3-dihydro-2H-benzimidazol-2-one]	43
CN(C)CCn1c(=O)n(S(=O)(=O)c2c(Cl)nc3sccn23)c2ccccc21 [Example 5, 1-[(6-chloroimidazo[2,1-b][1,3]thiazol-5-yl)sulfonyl]-3-[2-(dimethylamino)ethyl]-1,3-dihydro-2H-benzimidazol-2-one]	20
CN(C)CCn1c(=O)n(S(=O)(=O)c2ccc3ccccc3c2)c2ccccc21 [Example 6, 1-[2-(dimethylamino)ethyl]-3-(2-naphthylsulfonyl)-1,3-dihydro-2H-benzimidazol-2-one]	17
CN(C)CCn1c(=O)n(S(=O)(=O)c2ccc(Br)s2)c2ccccc21 [Example 10, 1-[(5-bromothien-2-yl)sulfonyl]-3-[2-(dimethylamino)ethyl]-1,3-dihydro-2H-benzimidazol-2-one]	40
NCCn1c(=O)n(S(=O)(=O)c2ccc(Cl)s2)c2ccccc21 [Example 17, 1-(2-Aminoethyl)-3-[(5-chlorothien-2-yl)sulfonyl]-1,3-dihydro-2H-benzimidazol-2-one]	26
NCCn1c(=O)n(S(=O)(=O)c2c(Cl)nc3sccn23)c2ccccc21 [Example 18, 1-(2-aminoethyl)-3-[(6-chloroimidazo[2,1-b][1,3]thiazol-5-yl)sulfonyl]-1,3-dihydro-2H-benzimidazol-2-one]	6
NCCn1c(=O)n(S(=O)(=O)c2ccc3ccccc3c2)c2ccccc21 [Example 19, 1-(2-aminoethyl)-3-(2-naphthylsulfonyl)-1,3-dihydro-2H-benzimidazol-2-one]	23
NCCn1c(=O)n(S(=O)(=O)c2ccc(Br)s2)c2ccccc21 [Example 20, 1-(2-aminoethyl)-3-[(5-bromothien-2-yl)sulfonyl]-1,3-dihydro-2H-benzimidazol-2-one]	26
O=c1n(C2CCNCC2)c2ccccc2n1S(=O)(=O)c1ccc2ccccc2c1 [Example 22, 3-(Naphth-2-ylsulfonyl)-1-piperidin-4-yl-1,3-dihydrobenzimidazol-2-one]	20
O=c1n(C2CCNCC2)c2ccccc2n1S(=O)(=O)c1ccc(Cl)s1 [Example 23, 1-[(5-chlorothien-2-yl)sulfonyl]-3-piperidin-4-yl-1,3-dihydro-2H-benzimidazol-2-one]	20
O=c1n(C2CCNCC2)c2ccccc2n1S(=O)(=O)c1ccc(Br)s1 [Example 24, 1-[(5-bromothien-2-yl)sulfonyl]-3-piperidin-4-yl-1,3-dihydro-2H-benzimidazol-2-one]	5
O=c1n(C2CCNCC2)c2ccccc2n1S(=O)(=O)c1cc(Cl)c(Cl)s1 [Example 25, 1-[(4,5-dichlorothien-2-yl)sulfonyl]-3-piperidin-4-yl-1,3-dihydro-2H-benzimidazol-2-one]	32
O=c1n(C2CCNCC2)c2ccccc2n1S(=O)(=O)c1cc(Cl)sc1Cl [Example 26, 1-[(2,5-dichlorothien-3-yl)sulfonyl]-3-piperidin-4-yl-1,3-dihydro-2H-benzimidazol-2-one]	34
O=c1n(C2CCNCC2)c2ccccc2n1S(=O)(=O)c1cc(Br)c(Br)s1 [Example 27, 1-[(4,5-dibromothien-2-yl)sulfonyl]-3-piperidin-4-yl-1,3-dihydro-2H-benzimidazol-2-one]	27
O=c1n(C2CCNCC2)c2ccccc2n1S(=O)(=O)c1cc(Br)c(Cl)s1 [Example 29, 1-[(4-bromo-5-chlorothien-2-yl)sulfonyl]-3-piperidin-4-yl-1,3-dihydro-2H-benzimidazol-2-one]	20

Compound	Ki [nM]
O=c1n(C2CCNCC2)c2ccccc2n1S(=O)(=O)c1c(Cl)sc(Cl)c1Br [Example 30, 1-[(4-bromo-2,5-dichlorothien-3-yl)sulfonyl]-3-piperidin-4-yl-1,3-dihydro-2H-benzimidazol-2-one]	42
Cc1c(S(=O)(=O)n2c(=O)n(C3CCNCC3)c3ccccc32)sc2ccc(Cl)cc12 [Example 31, 1-[(5-chloro-3-methyl-1-benzothien-2-yl)sulfonyl]-3-piperidin-4-yl-1,3-dihydro-2H-benzimidazol-2-one]	80
O=c1n(C2CCNCC2)c2ccccc2n1S(=O)(=O)c1c(Cl)nc2sccn12 [Example 32, 1-[(6-chloroimidazo[2,1-b][1,3]thiazol-5-yl)sulfonyl]-3-piperidin-4-yl-1,3-dihydro-2H-benzimidazol-2-one]	46
O=c1n(C2CCNCC2)c2ccccc2n1S(=O)(=O)c1c(Cl)nc2sc(Cl)cn12 [Example 33, 1-[(2,6-dichloroimidazo[2,1-b][1,3]thiazol-5-yl)sulfonyl]-3-piperidin-4-yl-1,3-dihydro-2H-benzimidazol-2-one]	23
O=c1n(C2CCNCC2)c2ccccc2n1S(=O)(=O)c1c(Cl)nc2ccccn12 [Example 34, 1-[(2-chloroimidazo[1,2-a]pyridin-3-yl)sulfonyl]-3-piperidin-4-yl-1,3-dihydro-2H-benzimidazol-2-one]	77
O=c1n(C2CCNCC2)c2ccccc2n1S(=O)(=O)c1cccc2nsnc12 [Example 38, 1-[(2,1,3-benzothiadiazol-4-yl)sulfonyl]-3-piperidin-4-yl-1,3-dihydro-2H-benzimidazol-2-one]	45
O=c1n(C2=CCNCC2)c2ccccc2n1S(=O)(=O)c1ccc2ccccc2c1 [Example 39, 1-(2-naphthylsulfonyl)-3-(1,2,3,6-tetrahydropyridin-4-yl)-1,3-dihydro-2H-benzimidazol-2-one]	6
O=c1n(C2=CCNCC2)c2ccccc2n1S(=O)(=O)c1ccc(Cl)s1 [Example 40, 1-[(5-chlorothien-2-yl)sulfonyl]-3-(1,2,3,6-tetrahydropyridin-4-yl)-1,3-dihydro-2H-benzimidazol-2-one]	5
O=c1n(C2=CCNCC2)c2ccccc2n1S(=O)(=O)c1ccc(Br)s1 [Example 41, 1-[(5-bromothien-2-yl)sulfonyl]-3-(1,2,3,6-tetrahydropyridin-4-yl)-1,3-dihydro-2H-benzimidazol-2-one]	4
O=c1n(C2=CCNCC2)c2ccccc2n1S(=O)(=O)c1cc(Cl)c(Cl)s1 [Example 42, 1-[(4,5-dichlorothien-2-yl)sulfonyl]-3-(1,2,3,6-tetrahydropyridin-4-yl)-1,3-dihydro-2H-benzimidazol-2-one]	15
O=c1n(C2=CCNCC2)c2ccccc2n1S(=O)(=O)c1cc(Cl)sc1Cl [Example 43, 1-[(2,5-dichlorothien-3-yl)sulfonyl]-3-(1,2,3,6-tetrahydropyridin-4-yl)-1,3-dihydro-2H-benzimidazol-2-one]	9
O=c1n(C2=CCNCC2)c2ccccc2n1S(=O)(=O)c1sc(Cl)cc1Br [Example 45, 1-[(3-bromo-5-chlorothien-2-yl)sulfonyl]-3-(1,2,3,6-tetrahydropyridin-4-yl)-1,3-dihydro-2H-benzimidazol-2-one]	10
O=c1n(C2=CCNCC2)c2ccccc2n1S(=O)(=O)c1cc(Br)c(Cl)s1 [Example 46, 1-[(4-bromo-5-chlorothien-2-yl)sulfonyl]-3-(1,2,3,6-tetrahydropyridin-4-yl)-1,3-dihydro-2H-benzimidazol-2-one]	9
Cc1c(S(=O)(=O)n2c(=O)n(C3=CCNCC3)c3ccccc32)sc2ccc(Cl)cc12 [Example 48, 1-[(5-chloro-3-methyl-1-benzothien-2-yl)sulfonyl]-3-(1,2,3,6-tetrahydropyridin-4-yl)-1,3-dihydro-2H-benzimidazol-2-one]	49
O=c1n(C2=CCNCC2)c2ccccc2n1S(=O)(=O)c1c(Cl)nc2sccn12 [Example 49, 1-[(6-chloroimidazo[2,1-b][1,3]thiazol-5-yl)sulfonyl]-3-(1,2,3,6-tetrahydropyridin-4-yl)-1,3-dihydro-2H-benzimidazol-2-one]	2
O=c1n(C2=CCNCC2)c2ccccc2n1S(=O)(=O)c1c(Cl)nc2ccccn12 [Example 51, 1-[(2-chloroimidazo[1,2-a]pyridin-3-yl)sulfonyl]-3-(1,2,3,6-tetrahydropyridin-4-yl)-1,3-dihydro-2H-benzimidazol-2-one]	19
